# Structures can show the parent of a compound that is named as a salt. Where two headings read alike, the source gives them in different places. Marks after values point to notes of the source that are not given here.
# How the values were obtained:
# H460 (NSCLC) = assay: In vitro cytotoxicity GI50, Example 48; assay type: cell-based
# HCT-116 (COLON) [1] = assay: In vitro cytotoxicity GI50, Example 48; assay type: cell-based; settings: Alamar Blue or Sulfarhodamine B
# Method: The study was performed using either Alamar Blue or Sulfarhodamine B assays.
# [2] = rat, in vivo, iv; cited from earlier work
# [3] = Solubility to saturation in various solvents, supernatant analysed by HPLC; assay type: physicochemical
# Method: Compounds were dissolved in each solvent under constant stirring and temperature to saturation. The resulting solutions were centrifuged and the supernatant was analyzed by high performance liquid chromatography (HPLC).
# [4] = In vitro stability of the lactone form in the presence of human serum albumin; assay type: in vitro ADME; settings: saline buffered solution 10 mM pH 7.4, 4% human serum albumin, 37° C.; emulsions vs camptothecin in DMSO; FIG. 12
# Text: High performance liquid chromatography with fluorescence detection was used to analyze the decrease in the concentration of the lactone form over time.
# HCT-116 (COLON) [5] = assay: In vitro cytotoxicity GI50, Example 17; assay type: cell-based; settings: Homo sapiens
# Method: (§1) The cells were in contact with varying concentrations of the test article for a period of 48 hours. At the end of 48 hours, staining with ALAMAR BLUE was performed to determine the number of viable cells and calculate the degree of cellular growth inhibition as compared to a control group.
# HCT-15 (COLON) = assay: In vitro cytotoxicity GI50, Example 17; assay type: cell-based; settings: Homo sapiens
# Method: as §1
# HT29 (COLON) = assay: In vitro cytotoxicity GI50, Example 17; assay type: cell-based; settings: Homo sapiens
# Method: as §1
# MCF-7 (BREAST) = assay: In vitro cytotoxicity GI50, Example 17; assay type: cell-based; settings: Homo sapiens, MCF7, emulsion formulations, 48 hours, ALAMAR BLUE
# Method: as §1
# NCI-H460 (NSCLC) = assay: In vitro cytotoxicity GI50, Example 17; assay type: cell-based; settings: Homo sapiens
# Method: as §1
# OVCAR-3 (OVARIAN) = assay: In vitro cytotoxicity GI50, Example 17; assay type: cell-based; settings: emulsion formulations, 48 hours, ALAMAR BLUE
# Method: as §1
# [6] = Pharmacokinetics after intravenous bolus in rats; assay type: in vivo; settings: Sprague-Dawley, rat, intravenous bolus of emulsion, approximately 14 mg/kg, plasma; for half-life: read-out: t1/2 (elimination) (converted)
# Method: Blood samples were collected for up to 120 hours post dose via the jugular vein. […] A noncompartmental analysis was carried out using WinNonlin (v 4.1).
# HT-29 human tumor cells = assay: HT-29 human tumor xenograft; assay type: in vivo, Athymic mice; settings: for Number of animals with no measurable tumor on Day 55 / Tumor Growth Delay (T-C) / Tumor Growth Inhibition (% T/C): 15 mg/kg i.v.; for Mice with no measurable tumor: fifty-five days after dose initiation
# Method: HT-29 Human Tumor Xenograft. Athymic mice were subcutaneously implanted with 30-40 mg tumor fragments using 12-gauge trocar needles. A sufficient number of mice were implanted with fragments so tumors in narrow weight range (100-200 mg) were selected for the trial on staging day (SD). The animals selected with tumors in the proper size range were randomized into six groups of 10 animals and intravenously administered the following test compounds:
# In both xenograph studies, animal body weights and tumors were measured twice weekly following the initiation of dosing. The tumor measurements were performed using a caliper (millimeters); the tumor volume was calculated based on the formula: (Length×width^2)/2=Volume(mm^3).
# HT-29 (COLON) = assay: In vitro cytotoxicity GI50, Example 48; assay type: cell-based; settings: Homo sapiens, Alamar Blue or Sulfarhodamine B
# SKOV-3 (OVARIAN) = assay: In vitro cytotoxicity GI50, Example 48; assay type: cell-based; settings: Homo sapiens, SK-OV-3, Alamar Blue or Sulfarhodamine B
compound,measurement,setting,value
"CCc1c2c(nc3ccc(OC(=O)CCC(=O)Oc4c(C)c(C)c5c(c4C)CCC(C)(CCCC(C)CCCC(C)CCCC(C)C)O5)cc13)-c1cc3c(c(=O)n1C2)COC(=O)C3(CC)OC(=O)CCC(=O)Oc1c(C)c(C)c2c(c1C)CCC(C)(CCCC(C)CCCC(C)CCCC(C)C)O2 (stereo not drawn) [10,20-diVESA-SN38, 10,20-Di(tocopherol succinate) 7-Ethyl-10-hydroxycamptothecin]",GI50,"H460 (NSCLC); H460, Alamar Blue or Sulfarhodamine B, read-out: GI50",4060 nM
same,GI50,HCT-116 (COLON) [1]; HCT-116,9330 nM
"CCc1c2c(nc3ccc(OC(C)=O)cc13)-c1cc3c(c(=O)n1C2)COC(=O)[C@@]3(CC)OC(=O)CCC(=O)Oc1c(C)c(C)c2c(c1C)CC[C@@](C)(CCC[C@H](C)CCC[C@H](C)CCCC(C)C)O2 [10-acetyl-20-VESA-SN38, 10-Acetyl-20-(d-α-tocopherolsuccinate)-7-ethyl-10-hydroxycamptothecin]",GI50,"H460 (NSCLC); Homo sapiens, NCI-H460",3900 nM
"CCc1c2c(nc3ccc(OC(=O)CCC(=O)Oc4c(C)c(C)c5c(c4C)CC[C@@](C)(CCC[C@H](C)CCC[C@H](C)CCCC(C)C)O5)cc13)-c1cc3c(c(=O)n1C2)COC(=O)[C@@]3(CC)OC(C)=O [20-acetyl-10-VESA-SN38, 20-Acetyl-10-(d-α-tocopherolsuccinate)-7-ethyl-10-hydroxycamptothecin]",GI50,"H460 (NSCLC); Homo sapiens, NCI-H460",1260 nM
same,GI50,"HCT-116 (COLON) [1]; Homo sapiens, HCT-116",144 nM
"CCc1c2c(nc3ccc(OC(=O)N4CCC(N5CCCCC5)CC4)cc13)-c1cc3c(c(=O)n1C2)COC(=O)[C@]3(O)CC [Irinotecan, irinotecan hydrochloride]",MRT,[2],1.43 h
"CC[C@@]1(OC(=O)CCC(=O)Oc2c(C)c(C)c3c(c2C)CC[C@@](C)(CCC[C@H](C)CCC[C@H](C)CCCC(C)C)O3)C(=O)OCc2c1cc1n(c2=O)Cc2cc3ccccc3nc2-1 [VESA-CPT, Butanedioic acid, (2R)-3,4-dihydro-2,5,7,8-tetramethyl-2-[(4R,8R)-4,8,12-trimethyltridecyl]-2H-1-benzopyran-6-yl (4S)-4-ethyl-3,4,12,14-tetrahydro-3,14-dioxo-1H-pyrano[3′,4′:6,7]indolizino[1,2-b]quinolin-4-yl ester]",Solubility,"[3]; Acetonitrile, Room Temp.",49.6 mg/g
same,Solubility,"[3]; Captex 300 EP, Room Temp.",96.7 mg/g
same,Solubility,"[3]; Chloroform, Room Temp.",>372.5 mg/g
same,Solubility,"[3]; DMSO, Room Temp.",>255.5 mg/g
same,Solubility,"[3]; Ethanol Denatured, Room Temp.",57.1 mg/g
same,Solubility,"[3]; Glycerin USP/EP/BP/JP, Room Temp.",2.541 mg/g
same,Solubility,"[3]; Methanol, Room Temp.",14.4 mg/g
same,Solubility,"[3]; Methylene dichloride, Room Temp.",>336.5 mg/g
same,Solubility,"[3]; PEG-400 NF, Room Temp.",17.5 mg/g
same,Solubility,"[3]; Propylene Glycol, USP, Room Temp.",0.4633 mg/g
same,Solubility,"[3]; Soybean Oil USP, Room Temp.",45.2 mg/g
same,Solubility,"[3]; TPGS, 65 °C",>133.3 mg/g
same,Solubility,"[3]; Tween 80 NF, 65 → Room Temp.",48.3 mg/g
same,Solubility,"[3]; Vitamin E USP/NF, 65 °C",>288.3 mg/g
same,Stability of the lactone form,[4],greater than that of camptothecin
same,GI50,"HCT-116 (COLON) [5]; HCT-116, 48 h",449 nM
same,GI50,"HCT-15 (COLON); HCT-15, 48 h",20 µM
same,GI50,"HT29 (COLON); HT-29, 48 h",434 nM
same,GI50,MCF-7 (BREAST),325 nM
same,GI50,"NCI-H460 (NSCLC); NCI-H460, 48 h",43 nM
same,GI50 (result in words),OVCAR-3 (OVARIAN),Poor
same,MRT,[6]; in vivo,9.4 h
same,clearance,[6]; in vivo,0.135 mL/min/kg
same,half-life,[6]; in vivo,1740 min
same,Number of animals with no measurable tumor on Day 55,HT-29 human tumor cells; q1dx5 (2 weeks),0/10
same,Tumor Growth Delay (T-C),HT-29 human tumor cells; q1dx5 (2 weeks),8.5 days
same,Tumor Growth Inhibition (% T/C),"HT-29 human tumor cells; q1dx5 (2 weeks), Day 55",79 % T/C
same,Number of animals with no measurable tumor on Day 55,HT-29 human tumor cells; q3dx10,0/10
same,Tumor Growth Delay (T-C),HT-29 human tumor cells; q3dx10,0 days
"CCc1c2c(nc3ccc(OC(=O)CCC(=O)Oc4c(C)c(C)c5c(c4C)CC[C@@](C)(CCC[C@H](C)CCC[C@H](C)CCCC(C)C)O5)cc13)-c1cc3c(c(=O)n1C2)COC(=O)[C@]3(O)CC [VESA-SN38, Butanedioic acid, (4S)-4,11-diethyl-3,4,12,14-tetrahydro-4-hydroxy-3,14-dioxo-1H-pyrano[3′,4′:6,7]indolizino[1,2-b]quinolin-9-yl (2R)-3,4-dihydro-2,5,7,8-tetramethyl-2-[(4R,8R)-4,8,12-trimethyltridecyl]-2H-1-benzopyran-6-yl ester]",Stability of the lactone form,[4],greater than that of camptothecin
same,GI50,"HCT-116 (COLON) [5]; HCT-116, emulsion formulations, 48 hours, ALAMAR BLUE, read-out: GI50",119 nM
same,GI50,"HCT-15 (COLON); HCT-15, emulsion formulations, 48 hours, ALAMAR BLUE, read-out: GI50",0.099 µM
same,GI50,"HT29 (COLON); HT-29, HT29, emulsion formulations, 48 hours, ALAMAR BLUE, read-out: GI50",91 nM
same,GI50,"NCI-H460 (NSCLC); NCI-H460, emulsion formulations, 48 hours, ALAMAR BLUE, read-out: GI50",4 nM
same,GI50,OVCAR-3 (OVARIAN); Homo sapiens,83 nM
same,MRT,[6],5.15 h
same,clearance,[6],0.112 mL/min/kg
same,half-life,[6],209 min
same,Number of animals with no measurable tumor on Day 55,HT-29 human tumor cells; q1dx5 (2 weeks),4/10
same,Tumor Growth Delay (T-C),HT-29 human tumor cells; q1dx5 (2 weeks),>28* days
same,Tumor Growth Inhibition (% T/C),"HT-29 human tumor cells; q1dx5 (2 weeks), Day 55",4 % T/C
same,Number of animals with no measurable tumor on Day 55,HT-29 human tumor cells; q3dx10,8/10
same,Tumor Growth Delay (T-C),HT-29 human tumor cells; q3dx10,>28* days
same,Tumor Growth Inhibition (% T/C),"HT-29 human tumor cells; q3dx10, Day 55",2 % T/C
same,Mice with no measurable tumor,HT-29 human tumor cells; q1dx5,40%
same,Mice with no measurable tumor,HT-29 human tumor cells; q3dx10,80%
"CCc1c2c(nc3ccc(OC(=O)CC4(CC(=O)Oc5c(C)c(C)c6c(c5C)CC[C@@](C)(CCC[C@H](C)CCC[C@H](C)CCCC(C)C)O6)CCCC4)cc13)-c1cc3c(c(=O)n1C2)COC(=O)[C@]3(O)CC [d-α-Tocopherol-3,3-tetramethyleneglutarate-7-ethyl-10-hydroxycamptothecin]",GI50,"H460 (NSCLC); Homo sapiens, NCI-H460, H460, Alamar Blue or Sulfarhodamine B, read-out: GI50",560 nM
same,GI50,"HCT-116 (COLON) [1]; Homo sapiens, HCT-116, HCT-116",214 nM
same,GI50,HT-29 (COLON),48 nM
"CCc1c2c(nc3ccc(OC(=O)CCCC(=O)Oc4c(C)c(C)c5c(c4C)CC[C@@](C)(CCC[C@H](C)CCC[C@H](C)CCCC(C)C)O5)cc13)C1CC3C(COC(=O)[C@]3(O)CC)C(=O)N1C2 (stereo partly drawn) [d-α-Tocopherolglutarate-SN38, d-α-Tocopherolglutarate-7-ethyl-10-hydroxycamptothecin]",GI50,"HCT-116 (COLON) [1]; Homo sapiens, HCT-116, HCT-116",190 nM
"CCc1c2c(nc3ccc(OC(=O)CC(C)CC(=O)Oc4c(C)c(C)c5c(c4C)CC[C@@](C)(CCC[C@H](C)CCC[C@H](C)CCCC(C)C)O5)cc13)-c1cc3c(c(=O)n1C2)COC(=O)[C@]3(O)CC (stereo partly drawn) [d-α-tocopherol-3-methylglutarate-SN38, d-α-Tocopherol-3-methylglutarate-7-ethyl-10-hydroxycamptothecin]",GI50,HCT-116 (COLON) [1]; HCT-116,187 nM
same,GI50,"HCT-116 (COLON) [1]; Homo sapiens, HCT-116, HCT-116",116 nM
"CCc1c2c(nc3ccc(OC(=O)CCC(=O)Oc4cc(C)c5c(c4)CC[C@@](C)(CCC[C@H](C)CCC[C@H](C)CCCC(C)C)O5)cc13)-c1cc3c(c(=O)n1C2)COC(=O)[C@]3(O)CC [δ-tocopherol succinate-SN38, δ-Tocopherolsuccinate-7-ethyl-10-hydroxycamptothecin]",GI50,SKOV-3 (OVARIAN),2.95 nM
"CCc1c2c(nc3ccc(OC(=O)CC(C)CC(=O)Oc4cc(C)c5c(c4)CC[C@@](C)(CCC[C@H](C)CCC[C@H](C)CCCC(C)C)O5)cc13)-c1cc3c(c(=O)n1C2)COC(=O)[C@]3(O)CC (stereo partly drawn) [δ-tocopherol-3-methylglutarate-SN38, δ-Tocopherol-3-methylglutarate-7-ethyl-10-hydroxycamptothecin]",GI50,SKOV-3 (OVARIAN),1.48 nM

# From US20080045559A1, “TOCOPHEROL-MODIFIED THERAPEUTIC DRUG COMPOUNDS” (SONUS PHARMACEUTICALS, INC., priority 2003, published 2008)
